Results as given in US20220324835A1 (Nurix Therapeutics, Inc., priority 2018, published 2022).

Assays:
Type in all cases: cell-based
[1] = system: primary human total T-cells; assay: T-cell activation assessed by CD69 expression
Excerpt: (§1) Peripheral blood mononuclear cells (PBMC) were obtained either: 1) by using Ficoll-Paque™ (GE Healthcare) for separation of peripheral blood hematopoietic cells from buffy coats of healthy human donors; or 2) directly from FeukoPak donations. Total human primary T-cells were isolated from the PMBCs utilizing negative selection with commercial kits following the manufacturer's protocol (Miltenyi Catalog #130-096-535 (i.e., cocktail of antibodies against surface markers CD14, CD15, CD16, CD19, CD34, CD36, CD56, CD123 and CD235a are incubated with the PBMCs before passing the samples by magnetic beads for removal of cells expressing those surface markers) or StemCells Catalog #17951) to yield >95% CD3+ cells as assessed by flow cytometry. For measurement of cell proliferation, cells were labeled with Cell Trace Violet (Invitrogen) following manufacturer's protocol prior to activation by stimulation with anti-CD3 antibody alone or in combination with anti-CD28 antibody. The Cbl-b inhibitor was added to 1×10^5 cells per well at multiple concentrations (e.g., 10 μM, 1.11 μM, or 0.123 μM) with a final DMSO concentration of <0.1%. The plate was incubated for one hour at 37° C. in 5% CO2. Following incubation with the Cbl-b inhibitor, primary human total T-cells were stimulated with either plate bound anti-CD3 antibody (OKT3) alone or plate bound anti-CD3 antibody (OKT3) with soluble anti-CD28 antibody (28.2) (Life Technologies). To prepare plates with plate bound anti-CD3 antibody (OKT3), 96-well round bottom tissue culture plates were coated with 100 μl of anti-CD3 antibody (OKT3) at 10 μg/mL for 4 hours at 37° C. 5% CO2 in phosphate buffered saline (PBS). The plates were washed with PBS prior to adding the cells with or without soluble anti-CD28 antibody (28.2) to each well at a final concentration of 5 μg/mL. Cells were stimulated for 48 hours prior to harvesting the cell free supernatant and staining the cell population for surface marker assessment by flow cytometry. Supernatants were analyzed for cytokine secretion (e.g., GM-CSF, IFNγ and TNFα) by ELISA (R&D Systems, Peprotech or Life Technologies) or Luminex multiplex kits (Procarta Life Technologies) following manufacturer's protocol. Cells were stained with anti-CD69 (BD Biosciences) to assess levels of surface markers of activation. Proliferation was measured by flow cytometry and data was analyzed with FlowJo v7.6.5 or v10. Readouts were reported as fold change over baseline. In some embodiments, baseline was the measurement obtained from total human T-cells stimulated with anti-CD3 antibody alone, wherein the cells were not incubated with a Cbl-b inhibitor. In some embodiments, baseline was the measurement obtained from total human T-cells stimulated with anti-CD3 antibody and anti-CD28 antibody, where the cells were not incubated with a Cbl-b inhibitor.
(§2) Cbl-b inhibitors were tested to determine their ability to induce or enhance secretion of cytokines from T-cells (e.g., GM-CSF, IFNγ and TNFα) and/or surface expression of cell surface markers on T-cells (e.g., CD69) that is indicative of T-cell activation. Cbl-b inhibitors were also tested to determine their ability to induce or enhance T-cell proliferation. Cbl-b inhibitors were tested for their effects on T-cell activation in the presence of costimulation and where conditions were suboptimal for priming.
(§3) Readouts for T-cell activation were reported as fold change over baseline. Baseline for this study was the measurement obtained from total human T-cells stimulated with anti-CD3 antibody alone or anti-CD3 antibody in combination with soluble anti-CD28 antibody, where the cells were not incubated with a Cbl-b inhibitor. For T-cells stimulated with anti-CD3/anti-CD28 or with anti-CD3 alone changes greater than 1,2-fold over baseline for % positive CD69 staining and greater than 2-fold over baseline for % total proliferating cells were considered a significant and positive response (Table 4a). […]

[2] = system: primary human total T-cells; assay: T-cell activation assessed by cell proliferation (Cell Trace Violet)
Excerpt: as §1, §2, §3

[3] = system: primary human total T-cells; assay: T-cell activation assessed by cytokine secretion (GM-CSF, IFNγ, TNFα)
Excerpt: as §1, §2, §3

[4] = CD3/CD28 stimulation, CD4 T-cells, read-out: % CD69+ (CD4)
[5] = CD3/CD28 stimulation, CD8 T-cells, read-out: % CD69+ (CD8)
[6] = CD3 alone stimulation, CD4 T-cells, read-out: % CD69+ (CD4)
[7] = CD3 alone stimulation, CD8 T-cells, read-out: % CD69+ (CD8)
[8] = CD3/CD28 stimulation, CD4 T-cells, read-out: % CP (cell proliferation) (CD4)
[9] = CD3/CD28 stimulation, CD8 T-cells, read-out: % CP (cell proliferation) (CD8)
[10] = CD3 alone stimulation, CD8 T-cells, read-out: % CP (cell proliferation) (CD8)
[11] = CD3/CD28 stimulation, read-out: GM-CSF secretion
[12] = CD3/CD28 stimulation, read-out: IFNγ secretion
[13] = CD3/CD28 stimulation, read-out: TNFα secretion
[14] = CD3 alone stimulation, read-out: GM-CSF secretion
[15] = CD3 alone stimulation, read-out: IFNγ secretion
[16] = CD3 alone stimulation, read-out: TNFα secretion

Row | Structure (SMILES) | fold induction at 1.11 µM [1, 4] | fold induction at 10 µM [1, 4] | fold induction at 1.11 µM [1, 5] | fold induction at 10 µM [1, 5] | fold induction at 1.11 µM [1, 6] | fold induction at 10 µM [1, 6] | fold induction at 1.11 µM [1, 7] | fold induction at 10 µM [1, 7] | fold induction at 1.11 µM [2, 8] | fold induction at 10 µM [2, 8] | fold induction at 1.11 µM [2, 9] | fold induction at 10 µM [2, 9] | fold induction at 1.11 µM [2, 10] | fold induction at 10 µM [2, 10] | fold induction at 1.11 µM [3, 11] | fold induction at 1.11 µM [3, 12] | fold induction at 1.11 µM [3, 13] | fold induction at 10 µM [3, 11] | fold induction at 10 µM [3, 12] | fold induction at 10 µM [3, 13] | further results
1 | Cc1n[nH]c(C)c1-c1cc2c(c(C(F)(F)F)c1)CN(c1cccc(C3(Cc4nncn4C)COC3)c1)C2=O [Compound 385, 6-(3,5-dimethyl-1H-pyrazol-4-yl)-2-(3-{3-[(4-methyl-4H-1,2,4-triazol-3-yl)methyl]oxetan-3-yl}phenyl)-4-(trifluoromethyl)-2,3-dihydro-1H-isoindol-1-one] | 1.2 to 1.4 | 1.4 to 1.6 | 1.2 to 1.4 | 1.2 to 1.4 | 1.4 to 1.6 | > 1.6 | 1.2 to 1.4 | 1.4 to 1.6 | > 4 | > 4 | 2.01 to 3 | 3.01 to 4 | 3.01 to 4 | > 4 | 1.51 to 2 | < 2 | 1.51 to 2 | 2.01 to 4 | > 4 | 2.01 to 4 | fold induction at 1.11 µM [3, 14]: 1.51 to 2; fold induction at 1.11 µM [3, 15]: < 2; fold induction at 1.11 µM [3, 16]: ≤ 1.5; fold induction at 10 µM [3, 14]: 2.01 to 4; fold induction at 10 µM [3, 15]: < 2; fold induction at 10 µM [3, 16]: 1.51 to 2
2 | C[C@@H](c1cc2c(c(C(F)(F)F)c1)CN(c1cccc(C3(Cc4nncn4C)COC3)c1)C2=O)N1CC[C@H](F)C1 [Compound 412, 6-((S)-1-((S)-3-fluoropyrrolidin-1-yl)ethyl)-2-(3-(3-((4-methyl-4H-1,2,4-triazol-3-yl)methyl)oxetan-3-yl)phenyl)-4-(trifluoromethyl)isoindolin-1-one] | 1.4 to 1.6 | 1.4 to 1.6 | 1.2 to 1.4 | 1.2 to 1.4 | > 1.6 | > 1.6 | 1.4 to 1.6 | 1.4 to 1.6 | > 4 | > 4 | > 4 | > 4 | > 4 | > 4 | > 4 | > 4 | 2.01 to 4 | > 4 | > 4 | > 4 | fold induction at 1.11 µM [3, 14]: > 4; fold induction at 1.11 µM [3, 15]: 3.01 to 4; fold induction at 1.11 µM [3, 16]: 1.51 to 2; fold induction at 10 µM [3, 14]: > 4; fold induction at 10 µM [3, 15]: > 4; fold induction at 10 µM [3, 16]: 2.01 to 4
3 | Cc1cc(C(=O)Nc2cccc([C@@H](C)Cc3nncn3C)c2)nc(C2CC2)n1 [Compound 325, (S)-2-Cyclopropyl-6-methyl-N-(3-(1-(4-methyl-4H-1,2,4-triazol-3-yl)propan-2-yl)phenyl)pyrimidine-4-carboxamide] | 1.4 to 1.6 | 1.4 to 1.6 | 1.2 to 1.4 | 1.2 to 1.4 | 1.4 to 1.6 | > 1.6 | ≤ 1.2 | 1.2 to 1.4 | > 4 | > 4 | 2.01 to 3 | > 4 | 2.01 to 3 | > 4 | 1.51 to 2 | 3.01 to 4 | ≤ 1.5 | 2.01 to 4 | > 4 | 2.01 to 4 | fold induction at 1.11 µM [3, 14]: ≤ 1.5; fold induction at 1.11 µM [3, 15]: < 2; fold induction at 1.11 µM [3, 16]: ≤ 1.5; fold induction at 10 µM [3, 14]: 1.51 to 2; fold induction at 10 µM [3, 15]: < 2; fold induction at 10 µM [3, 16]: ≤ 1.5
